From patent publication US7534892B2, “Sulfonamide compound” (Shionogi & Co., Ltd., priority 2004, dated 2009)
Like-named read-outs stand apart in the source and are kept apart here.

Test system: food intake of rats
Assay: Antifeeding activity: food intake after intracerebroventricular infusion of NPYY5 agonist
Type: in vivo
Conditions: Rattus norvegicus, compound 30 mg/kg oral, 0.1 nmol NPYY5 agonist infused one hour later
Description: A guide cannula was implanted in ventriculus lateralis of 7-week-old rats (200-300 g) reared in free-feeding. Then the rats reared in free-feeding about for 1 week.
A compound of the present invention was suspended in 0.5% HPMC solution (hydroxypropylmethylcellulose: 60SH-50, Shin-Etsu Chemical Co., Ltd.) to get a final concentration of 15 mg/ml.
Rats were given 2 mL/kg of a suspension of a compound of the present invention (the compound 30 mg/kg) by oral administration. On the other hand, rats in a control group were given the same amount of 0.5% HPMC by oral administration.
NPYY5 agonist ([cPP^1-7, NPY^19-23, Ala^31, Aib^32, Gln^34]-hPancreatic Polypeptide: Tocris Coockson) was dissolved in a physiological salt solution to be 0.1 nmol/10 μL. 0.1 nmol of the solution was infused via a guide cannula in a head of the rat one hour after giving a compound of the present invention. Immediately after the infusion, the amount of the remaining food was measured.
The amount of the remaining food was measured 1, 2 or 4 hour(s) after the infusion of an agonist and the food intake for this period was calculated. An antifeeding rate of a compound of the present invention against the food intake of rats in a control group was calculated.

[1] = food intake 1 h after infusion vs control group, read-out: Antifeeding activity (%) 1 h
[2] = food intake 2 h after infusion vs control group, read-out: Antifeeding activity (%) 2 h
[3] = food intake 4 h after infusion vs control group, read-out: Antifeeding activity (%) 4 h

How did the inhibition in vivo at 30 mg/kg [1] turn out when `CCS(=O)(=O)N[C@H]1CC[C@H](C(=O)Nc2ccc(OCC(F)(F)F)nc2)CC1` [Ia-2] was run?
The inhibition in vivo at 30 mg/kg was 98%.

And the inhibition in vivo at 30 mg/kg [2]?
The inhibition in vivo at 30 mg/kg was 77%.

What about the inhibition in vivo at 30 mg/kg [3] of the same compound?
The inhibition in vivo at 30 mg/kg was 56%.

What does the source list for `CCS(=O)(=O)NCCCCC(=O)Nc1ccc(OCC(F)(F)F)nc1` [Ia-3]?
inhibition in vivo at 30 mg/kg [1]: 85%; inhibition in vivo at 30 mg/kg [2]: 78%; inhibition in vivo at 30 mg/kg [3]: 74%

Which inhibition in vivo at 30 mg/kg [1] does the source give for `CCS(=O)(=O)N[C@H]1CC[C@H](C(=O)Nc2ccc(N3C[C@@H](C)O[C@@H](C)C3)cc2)CC1` [Ib-1] here?
Its inhibition in vivo at 30 mg/kg is 90%.

What about the inhibition in vivo at 30 mg/kg [2] of the same compound?
The inhibition in vivo at 30 mg/kg was 95%.

And the inhibition in vivo at 30 mg/kg [3]?
Its inhibition in vivo at 30 mg/kg is 92%.

Which inhibition in vivo at 30 mg/kg [1] does the source give for `CCn1c2ccccc2c2cc(NC(=O)[C@H]3CC[C@H](NS(=O)(=O)CC)CC3)ccc21` [Id-1] here?
Its inhibition in vivo at 30 mg/kg is 5%.

And the inhibition in vivo at 30 mg/kg [2]?
Its inhibition in vivo at 30 mg/kg is 37%.

What about the inhibition in vivo at 30 mg/kg [3] of the same compound?
Its inhibition in vivo at 30 mg/kg is 49%.

How did the inhibition in vivo at 30 mg/kg [1] turn out when `CCn1c2ccccc2c2cc(NC(=O)CCCCNS(=O)(=O)CC)ccc21` [Id-2] was run?
Its inhibition in vivo at 30 mg/kg is 100%.

And the inhibition in vivo at 30 mg/kg [2]?
The inhibition in vivo at 30 mg/kg was 100%.

What about the inhibition in vivo at 30 mg/kg [3] of the same compound?
The inhibition in vivo at 30 mg/kg was 100%.

With `CCS(=O)(=O)NCCCCC(=O)Nc1ccc2c(c1)c1c(n2C(C)C)CCCC1` [Id-4] as the compound, how does the inhibition in vivo at 30 mg/kg [1] read?
Its inhibition in vivo at 30 mg/kg is 100%.

What about the inhibition in vivo at 30 mg/kg [2] of the same compound?
Its inhibition in vivo at 30 mg/kg is 94%.

And the inhibition in vivo at 30 mg/kg [3]?
The inhibition in vivo at 30 mg/kg was 95%.

With `CCn1c2ccccc2c2cc(NC(=O)CCNS(=O)(=O)CC(F)(F)F)ccc21` [Ig-1] as the compound, how does the inhibition in vivo at 30 mg/kg [1] read?
The inhibition in vivo at 30 mg/kg was 67%.

What about the inhibition in vivo at 30 mg/kg [2] of the same compound?
Its inhibition in vivo at 30 mg/kg is 44%.

And the inhibition in vivo at 30 mg/kg [3]?
Its inhibition in vivo at 30 mg/kg is 48%.

Which results are given for `CN(C)S(=O)(=O)N[C@H]1CC[C@H](C(=O)Nc2ccc(C(F)(F)F)cc2)CC1` [Ii-1]?
inhibition in vivo at 30 mg/kg [1]: 42%; inhibition in vivo at 30 mg/kg [2]: 38%; inhibition in vivo at 30 mg/kg [3]: 31%
